ChEMBL document CHEMBL1129844, “Mechanism-based inactivation of l-pipecolate oxidase by a sulfur-containing substrate analog, 5-thia-l-pipecolic acid” (Bioorg Med Chem Lett, 1997)
Where “and” joins values, the source holds several entries; their conditions need not be identical. Equal values may be shown once. Blank lines part the entries; values can stand above or below the molecule they belong to.

Tests used:
[1] = molecular target: T1, Peroxisomal sarcosine oxidase (Homo sapiens) (UniProt Q9P0Z9); experiment: Kinetic parameter was evaluated for L-pipecolate oxidase in Frozen Rhesus monkey liver ith L-PA as substrate; format: tissue-based; conditions: Cercopithecidae, target entry is the homologue from another species
T1 sequence (whole entry): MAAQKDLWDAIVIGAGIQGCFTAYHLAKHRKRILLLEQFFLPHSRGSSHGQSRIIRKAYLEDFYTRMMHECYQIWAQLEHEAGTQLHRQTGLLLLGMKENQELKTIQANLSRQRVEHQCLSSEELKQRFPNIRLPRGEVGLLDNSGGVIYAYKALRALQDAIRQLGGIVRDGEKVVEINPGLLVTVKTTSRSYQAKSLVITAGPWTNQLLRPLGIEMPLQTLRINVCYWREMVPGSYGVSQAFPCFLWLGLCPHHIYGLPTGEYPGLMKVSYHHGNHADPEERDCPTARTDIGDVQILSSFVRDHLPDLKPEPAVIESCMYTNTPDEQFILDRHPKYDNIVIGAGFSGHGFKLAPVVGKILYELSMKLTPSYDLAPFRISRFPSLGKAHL

[2] = molecular target: T1, Peroxisomal sarcosine oxidase (Homo sapiens); experiment: (§1) Kinetic parameter was evaluated for L-pipecolate oxidase using the peroxidase-coupled assay; conditions: Cercopithecidae
[3] = molecular target: T1, Peroxisomal sarcosine oxidase (Homo sapiens); experiment: Kinetic parameter was evaluated for L-pipecolate oxidase; conditions: Cercopithecidae
[4] = molecular target: T1, Peroxisomal sarcosine oxidase (Homo sapiens); experiment: Kinetic parameter was evaluated for L-pipecolate oxidase was expressed as K observed; conditions: Cercopithecidae
[5] = Partition ratio was calculated from the ratio of kcat/kinact
[6] = molecular target: T2, Peroxisomal sarcosine oxidase (Homo sapiens, UniProt Q9P0Z9); experiment: Time and concentration dependent inhibition of L-pipecolate oxidase was determined by the compound; set-up: species or system Cercopithecidae
T2 sequence (Q9P0Z9 whole entry): T1 sequence (whole entry)

[7] = substrate: O=C(O)[C@@H]1CCSCN1; experiment: as §1; conditions: Cercopithecidae

k cat [1]: 0.13 s⁻¹ | k cat [2]: 0.085 s⁻¹ | K inact [3]: 0.06 min⁻¹ | k obs [4]: 4.01e-05 s⁻¹ and 4.26e-05 s⁻¹ | Ratio [5]: 85 | Ki [6]: 36 mM
Molecule: O=C(O)[C@@H]1CCSCN1

B1: Peroxisomal sarcosine oxidase (Homo sapiens), Q9P0Z9 (protein)
chain: T1 sequence (whole entry)
Km [7]: 940 µM
